Laboratory results taken from US10766888B1, “HMOX1 inducers” (Mitobridge Inc., priority 2019, dated 2020).
≈ marks a conversion by molar mass, not a printed value. Where two headings read alike, the source gives them in different places.

Experiments:
Kinetic solubility = type: physicochemical; conditions: Dulbecco's phosphate buffer saline (DPBS), aqueous buffer, kinetic from dmso stock, DPBS pH 7.4, 25° C., 200 μM test compound
How it was run: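 Compound from 10 mM DMSO stock diluted to 200 μM final in DPBS pH 7.4 and, separately, in DMSO, in duplicate. Shaken 16 h at 25 °C, then centrifuged 20 min at 25 °C. Supernatant analysed by HPLC.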

[1] = PK study: plasma and brain levels in mice; type: in vivo; conditions: male C57BL/6 mice, 50 mg/kg oral; for concentration at 0.5 h / concentration at 4 h: mouse; for concentration at 0.5 h: 0.5 hr post dosing; for concentration at 4 h: 4 hr post dosing
Procedure: 9-10 week old male C57BL/6 mice were dosed orally with 50 mg/kg of the test compound formulated in 5% w/v tween 80 and 0.5% methyl cellulose. At 0.5 and 4 h post dosing, whole blood was collected, animals were sacrificed and brain tissues were collected. The blood samples were immediately placed on ice, and centrifuged within 60 min at 4° C. for 3 min at 14000 rpm to obtain plasma. Plasma was transferred by pipette to pre-labeled Eppendorf tubes, stored at −80° C. until analyzed.
Brain tissue samples were collected and rinsed with fresh ice cold 0.9% NaCl solution, dried quickly and thereafter frozen on dry ice/liquid nitrogen and stored at −70±10° C. until analyzed. Homogenization was done using phosphate buffer saline and used for analysis. Bioanalysis was performed using LC-MS/MS (API 4000).

[2] = tested on: Human Heme Oxygenase-1 (HMOX-1); test: ELISA assay to measure human heme oxygenase-1 (HMOX-1) in HepG2 lysate; type: cell-based
How it was run: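 HO-1 protein levels were read as fold change over DMSO-treated cells, with EC50 derived from these values. Quantitation used a chemiluminescent streptavidin-HRP capture ELISA, calibrated with an HO-1 standard series starting at 20 ng/ml, run at 20 °C. Samples were HepG2 lysates made with Triton X100/EDTA buffer and diluted 1:20.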

[3] = brain, read-out: Brain (ng/g) 0.5 hr
[4] = plasma, read-out: Plasma (ng/ml) 0.5 hr
[5] = plasma, read-out: Plasma (ng/ml) 4 hr
[6] = human HMOX1 protein level in HepG2 lysate, * = average of 2 or more EC50 determinations, NA = Not Active, read-out: EC50

solubility at 16 h (Kinetic solubility) [µM] | concentration at 0.5 h [1, 3] [ng/g] | concentration at 0.5 h [1, 4] [ng/mL] | concentration at 4 h [1, 5] [ng/mL] | EC50 ([2]; HepG2, human HMOX1, as listed in Table 5, read-out: HMOX1 EC50 h) [nM] | EC50 [2, 6] [nM] | brain penetration (in words) [1] | concentration at 4 h ([1]; brain, read-out: Brain (ng/g) 4 hr) [ng/g] | Compound
11.6 (≈ 4.59 µg/mL) | 188 ± 83 | 4240 ± 771 | 72 ± 38 | 1400 | 1400 |  |  | Cn1c(Nc2nc3ccccc3o2)nc2cc(C(=O)NCCOCCO)ccc21 [Example 17, 2-(benzo[d]oxazol-2-ylamino)-N-(2-(2-hydroxyethoxy)ethyl)-1-methyl-1H-benzo[d]imidazole-5-carboxamide]
9.7 (≈ 4.26 µg/mL) | 4230 ± 600 | 4240 ± 428 | 281 ± 318 |  | 1400 | good brain penetration | 122 ± 153 | COCCNC(=O)c1ccc2c(c1)nc(Nc1nc3ccc(OCCOC)cc3o1)n2C [Example 56, 2-((6-(2-methoxyethoxy)benzo[d]oxazol-2-yl)amino)-N-(2-methoxyethyl)-1-methyl-1H-benzo[d]imidazole-5-carboxamide]
